This note sets out measurements from US20250230151A1, “COMPOUNDS FOR CANCERS DRIVEN BY BRAF MUTATION” (THE BOARD OF TRUSTEES OF THE UNIVERSITY OF ILLINOIS, priority 2021, published 2025).

Data set [1] relates to A375 cells. In words: 72-hour cell viability assay (Alamar Blue), A375. The format is cell-based, human. The conditions noted are these: Homo sapiens; for IC50: A-375, 72 h, 72-hour incubation, Alamar Blue, V600E BRAF; for Emax: A-375, A375, 72-hour incubation. On the procedure:
(§1) Cell Culture and reagents. All cell lines were grown in a 37° C., 5% CO2, humidified environment, in media containing 1% penicillin/streptomycin. Cell culture conditions are as follows: MDCK cells transfected with MDR1 (or ABCB1) were obtained from the Netherlands Cancer Institute (Amsterdam, The Netherlands) and maintained in DMEM with 10% fetal bovine serum (FBS, Gemini). Traditional cell lines A375, CHL-1, B16F10, and U118MG were grown in DMEM with 10% FBS, SK-MEL-28, U87 and T98G in EMEM with 10% FBS, AM-38 in EMEM with 20% HI-FBS (Gibco), HT29 in McCoy's 5A with 10% FBS, HCT116 in RPMI with 10% FBS. Compounds were dissolved in DMSO (1% final concentration, Sigma-Aldrich) for cell culture studies.
(§2) Cell viability assays. Cells were harvested, seeded in a 96-well plate and allowed to adhere overnight. Compound was added to each well in DMSO (1% final concentration). Cells were incubated for 72 hours before viability was assessed by the Alamar Blue Assay. Raptinal ([…]) was used as a dead control.
On the technique in general: The colour change of resazurin is a common sign of viable cells or microbes.

The target of data set [2] is T1, P-gp (Homo sapiens, UniProt P08183).
T1 construct: host or cells: MDCK (MDR1-MDCK)
T1 sequence (P08183 whole entry): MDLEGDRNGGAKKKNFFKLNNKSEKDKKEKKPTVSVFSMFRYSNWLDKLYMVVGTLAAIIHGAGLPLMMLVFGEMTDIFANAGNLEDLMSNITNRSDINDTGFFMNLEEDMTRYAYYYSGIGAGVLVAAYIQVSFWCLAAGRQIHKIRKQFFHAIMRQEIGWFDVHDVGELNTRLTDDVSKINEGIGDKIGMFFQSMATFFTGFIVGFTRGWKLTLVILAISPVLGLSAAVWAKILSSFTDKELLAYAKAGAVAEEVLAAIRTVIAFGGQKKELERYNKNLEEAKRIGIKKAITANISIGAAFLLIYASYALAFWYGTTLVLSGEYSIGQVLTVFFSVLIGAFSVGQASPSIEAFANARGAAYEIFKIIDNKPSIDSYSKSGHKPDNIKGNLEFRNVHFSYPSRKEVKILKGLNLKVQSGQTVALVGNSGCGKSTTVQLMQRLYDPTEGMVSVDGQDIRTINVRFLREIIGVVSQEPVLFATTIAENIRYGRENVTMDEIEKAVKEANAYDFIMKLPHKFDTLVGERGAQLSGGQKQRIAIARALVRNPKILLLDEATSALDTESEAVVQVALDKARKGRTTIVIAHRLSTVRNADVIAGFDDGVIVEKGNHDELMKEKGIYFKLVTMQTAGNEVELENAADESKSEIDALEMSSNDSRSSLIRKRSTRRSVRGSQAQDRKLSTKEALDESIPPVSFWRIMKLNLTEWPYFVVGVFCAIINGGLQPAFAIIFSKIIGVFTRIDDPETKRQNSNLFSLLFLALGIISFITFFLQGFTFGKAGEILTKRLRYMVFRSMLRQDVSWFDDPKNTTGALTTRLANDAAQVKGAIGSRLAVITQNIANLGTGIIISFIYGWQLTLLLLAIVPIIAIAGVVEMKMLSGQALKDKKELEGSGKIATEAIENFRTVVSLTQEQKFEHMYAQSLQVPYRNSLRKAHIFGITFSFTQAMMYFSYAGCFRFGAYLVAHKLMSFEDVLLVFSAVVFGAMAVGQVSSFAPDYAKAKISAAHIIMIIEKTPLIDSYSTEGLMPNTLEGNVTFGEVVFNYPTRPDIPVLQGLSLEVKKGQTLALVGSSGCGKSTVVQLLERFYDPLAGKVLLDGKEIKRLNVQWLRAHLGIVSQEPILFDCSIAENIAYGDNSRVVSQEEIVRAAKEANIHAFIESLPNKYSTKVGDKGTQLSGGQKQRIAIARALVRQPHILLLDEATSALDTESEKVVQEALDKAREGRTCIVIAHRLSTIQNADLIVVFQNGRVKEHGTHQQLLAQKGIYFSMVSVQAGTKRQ
Kind of data set: MDR1-MDCK P-gp transwell bidirectional transport assay. The following applies: 10 μM, 90 min; for Papp A→B at 90 min, 10 µM / Papp B→A at 90 min, 10 µM / efflux ratio at 90 min, 10 µM: dog, MDCK-MDR1, MDR1-MDCK; for efflux ratio at 90 min, 10 µM: read-out: ER (efflux ratio) (converted). The format is in vitro ADME. As for the experimental part: A novel compound collection composed of complex and diverse compounds derived from natural products, termed “Complexity-to-Diversity Collection” was employed. […] The CtD compounds were evaluated by the efflux pump and their permeability using the P-gp transwell assay using adapted and optimized known protocols. Compound transport across epithelial cells overexpressing P-gp from basolateral-to-apical and apical-to-basolateral directions were quantified to calculate permeability and efflux ratio.
P-gp transwell bidirectional transport assays. Unless noted otherwise, the transport assay was performed in triplicate in batches of 16 or 24 test compounds, with each batch containing quinidine as a substrate control and propranolol as a non-substrate control. MDR1-MDCK cells were plated at a density of 300,000 cells/cm^2 onto 96-well Falcon™ Multiwell Insert System with 1 µm pore polycarbonate filters with angled-bottom receiver plates (Coming) and were fed with the cell growth medium on day 2.
The donor solution was prepared by adding 1 mM DMSO stocks of compounds to make the final concentration […], and the receiver solution was prepared with equivalent volume of DMSO to make 1% DMSO in final assay chamber volumes.
After 80-96 hours since seeding, the growth media on both sides was aspirated. To the transwell plate (apical side), 50 μL of receiver and donor solutions prepared on a 96-well plate were added, and it was placed on top of a separate angled-bottom 96-well plate (basolateral side) containing 260 μL of receiver and donor solutions.
Following 90 minutes of incubation at 37° C. with shaking at 90 rpm, 20 μL aliquot of samples were taken from both the donor and receiver chambers, and the apical and basolateral sides. Aliquots of 4 test compounds were pooled for each category: apical-donor, apical-receiver, basolateral-donor, basolateral-receiver. To measure CO and mass balance, initial donor samples from both apical and basolateral side were set aside from the assay plate. Acetonitrile twice the volume of pooled samples was added and mixed thoroughly, and precipitated proteins were removed by centrifugation at 20,000 r.c.f for 10 minutes.
To ascertain the MDCK monolayer integrity, the solution on apical side contained 100 µM Lucifer Yellow (Millipore-Sigma). After 90 minutes of compound transport, Lucifer Yellow concentration in the basal well was measured using SpectraMax M3 (Molecular Devices) set to an excitation wavelength of 430 nm and an emission wavelength of 540 nm.
Samples were analyzed with the 5500 QTRAP LC/MS/MS system (AB Sciex) with a 1200 series HPLC system (Agilent Technologies) including a degasser, an autosampler, and a binary pump. The liquid chromatography separation was performed on an Agilent SB-Aq column (4.6×50 mm, 5 μm) (Agilent Technologies) with mobile phase A (0.1% formic acid in water) and mobile phase B (0.1% formic acid in acetonitrile). The flow rate was 0.3 ml min^−1. The linear gradient was optimized for each compound. The autosampler was set at 5° C. The injection volume was 15 μL. Mass spectra were acquired with both positive electrospray ionization at the ion spray voltage of 5,500 V and negative electrospray ionization at the ion spray voltage of −4,500 V. The source temperature was 450° C. The curtain gas, ion source gas 1, and ion source gas 2 were 33, 50 and 65, respectively. Multiple reaction monitoring was used to quantify metabolites.
Efflux data calculations.

The subject of data set [3] is SK-MEL-28 cells. Kind of data set: 72-hour cell viability assay (Alamar Blue), SK-MEL-28. The format is cell-based. The conditions noted are these: Homo sapiens, SK-MEL-28, V600E BRAF, melanoma. As for the experimental part:
as §1, §2

Data set [4] relates to HCT116 cells. Kind of data set: 72-hour cell viability assay (Alamar Blue), HCT116. The format is cell-based. The conditions noted are these: Homo sapiens, HCT-116, WT BRAF, colon, read-out: HCT116 (WT) IC50. As for the experimental part: as §1, §2
A short description of data set [5]: Blood-brain barrier penetrance, brain and serum levels after single IV injection. The following applies: CD-1, mouse, 60 min after single 25 mg/kg IV injection, read-out: brain-to-serum ratio. The format is in vivo. On the procedure: Blood-brain barrier penetrance P-gp in vivo assays. All experimental procedures were reviewed and approved by the University of Illinois Institutional Animal Care and Use Committee (Protocol number: 19191). CD-1 mice were purchased from Charles River and acclimated for 4-7 days before use. Mice were administered elacridar or its vehicle at 2.5 mg/kg via lateral tail vein injection. Thirty-minutes post injection, mice were then treated with compounds at 25 mg/kg intravenously now in the other tail vein. At each time point, mice were sacrificed and blood was collected by lacerating the right auricle with iris scissors. An 18-gauge angiocatheter was inserted through the left ventricle, and all residual circulatory volume was removed by perfusing 0.9% saline solution via an analog peristaltic pump. Brains were harvested from the cranial vault and flash frozen. Blood samples were centrifuged at 13,000 ref for 10 minutes and the supernatant serum was stored at −80° C. until analysis. Brain samples were homogenized in ice-cold methanol and centrifuged first at 2000 ref for three minutes and then 13,000 ref for ten minutes and supernatant and tissue debris were separated and stored at −80° C. The resultant supernatant and serum were analyzed by LC-MS/MS to determine compound concentrations. […] All compounds were administered at 5 mL/kg.

Data set [6] deals with MAPK signaling (phospho-MEK1/2, phospho-ERK1/2) in A375 cells. In words: Immunoblotting of MEK1/2 and ERK1/2 phosphorylation, A375. The format is cell-based, human. The following applies: A375, highest concentrations (10 μM), 24 h. On the procedure:
Immunoblotting. Cells were lysed using RIPA buffer containing phosphatase (BioVision) and protease inhibitor cocktail (Calbiochem). Protein concentration was determined using the BCA assay (Pierce). Cell lysates containing […] of protein were loaded into each lane of 4% to 20% gradient gels (Bio-Rad) for SDS-PAGE. Proteins were transferred onto PDVF membrane for Western blot analysis. Blots were blocked with BSA for one hour followed by incubation with primary antibody overnight (dilution according to manufacturer's protocols), and then secondary antibody was incubated for one hour. Blots were then imaged with a ChemiDoc Touch (Bio-Rad) after incubation with SuperSignal West Pico Solution (ThermoFischer) following manufacturer's protocols. All antibodies were purchased from Cell Signaling Technology: p-ERK (9101S), ERK (4695S), p-MEK (9121S), MEK (8727S), vinculin (13901S) Rabbit IgG-HRP (7074), […] (5125).

On to `CC(C)(C)c1nc(-c2cccc(NS(=O)(=O)c3c(F)cccc3F)c2F)c(-c2ccnc(CCCCC(=O)O)n2)s1` [6-131, 5-(4-(2-(tert-butyl)-4-(3-((2,6-difluorophenyl)sulfonamido)-2-fluorophenyl)thiazol-5-yl)pyrimidin-2-yl)pentanoic acid], for which, in data set [1], it took 1580 ± 458 nM to reach half-maximal inhibition (IC50) and the Emax came to 60%. In addition, in data set [2], the apical-to-basolateral permeability (Papp A→B) (as a rule, how fast a substance crosses the layer from the apical side) at 90 min, 10 µM was 0.449 ± 0.008 ×10⁻⁶ cm/s; the basolateral-to-apical permeability (Papp B→A) – broadly, how fast a substance crosses the layer from the basolateral side – at 90 min, 10 µM worked out at 1.03 ± 0.166 ×10⁻⁶ cm/s; the efflux ratio at 90 min, 10 µM was 1.93 ± 0.08.

As for `CC(C)(C)c1nc(-c2c(F)ccc(NS(=O)(=O)c3cc(C(F)(F)F)ccc3C(F)(F)F)c2F)c(-c2ccnc(N)n2)s1` [6-145, N-(3-(5-(2-aminopyrimidin-4-yl)-2-(tert-butyl)thiazol-4-yl)-2,4-difluorophenyl)-2,5-bis(trifluoromethyl)benzenesulfonamide], the 50% inhibitory concentration (IC50) (as a rule, the point on the concentration scale where inhibition reaches its midpoint) in data set [1] was over 3000 nM. For the same compound, in data set [2], the Papp A→B at 90 min, 10 µM is 0.94 ± 0.05 ×10⁻⁶ cm/s; the Papp B→A at 90 min, 10 µM was determined as 5.66 ± 0.19 ×10⁻⁶ cm/s; the efflux ratio at 90 min, 10 µM was 6.05 ± 0.5.

As to `CC(C)(C)c1nc(-c2c(F)ccc(NS(=O)(=O)c3cc(C(F)(F)F)ccc3C(F)(F)F)c2F)c(-c2ccnc(NCCCCC(=O)O)n2)s1` [6-150, 5-((4-(4-(3-((2,5-bis(trifluoromethyl)phenyl)sulfonamido)-2,6-difluorophenyl)-2-(tert-butyl)thiazol-5-yl)pyrimidin-2-yl)amino)pentanoic acid], the IC50 in data set [1] was over 50000 nM. In data set [2], the Papp A→B at 90 min, 10 µM stood at 0.518 ×10⁻⁶ cm/s; the basolateral-to-apical permeability (Papp B→A) at 90 min, 10 µM was determined as 0.398 ± 0.149 ×10⁻⁶ cm/s; the efflux ratio at 90 min, 10 µM was 0.6.

As for `CC(C)(C)c1nc(-c2cccc(NS(=O)(=O)c3cc(C(F)(F)F)ccc3C(F)(F)F)c2F)c(-c2ccnc(NCCCCC(=O)O)n2)s1` [6-173, 5-((4-(4-(3-((2,5-bis(trifluoromethyl)phenyl)sulfonamido)-2-fluorophenyl)-2-(tert-butyl)thiazol-5-yl)pyrimidin-2-yl)amino)pentanoic acid], the IC50 in data set [1] was over 50000 nM. Besides, the basolateral-to-apical permeability (Papp B→A) at 90 min, 10 µM in data set [2] was found to be 0.46 ± 0.086 ×10⁻⁶ cm/s.

Turning to `CC(C)(C)c1nc(-c2c(F)ccc(NS(=O)(=O)c3ccc(F)cc3C(F)(F)F)c2F)c(-c2ccnc(NCCCCC(=O)O)n2)s1` [6-179, 5-((4-(2-(tert-butyl)-4-(2,6-difluoro-3-((4-fluoro-2-(trifluoromethyl)phenyl)sulfonamido)phenyl)thiazol-5-yl)pyrimidin-2-yl)amino)pentanoic acid], in data set [1], the 50% inhibitory concentration (IC50) was 14700 ± 6160 nM. The compound also returned a basolateral-to-apical permeability (Papp B→A) at 90 min, 10 µM in data set [2] of 1.79 ± 0.064 ×10⁻⁶ cm/s.

In data set [1], `CC(C)(C)c1nc(-c2cccc(NS(=O)(=O)c3c(F)cccc3F)c2F)c(-c2ccnc(CCCC(=O)O)n2)s1` [6-191, 4-(4-(2-(tert-butyl)-4-(3-((2,6-difluorophenyl)sulfonamido)-2-fluorophenyl)thiazol-5-yl)pyrimidin-2-yl)butanoic acid] showed a 50% inhibitory concentration (IC50) of 558 ± 118 nM and an Emax of 60%. Besides, the Papp B→A at 90 min, 10 µM in data set [2] came out at 1.45 ± 0.172 ×10⁻⁶ cm/s.

Turning to `CCCS(=O)(=O)Nc1cc(Cl)cc(-c2nc(C(C)(C)C)sc2-c2ccnc(NCC(C)CC(=O)O)n2)c1F` (stereo not drawn) [6-265, 4-((4-(2-(tert-butyl)-4-(5-chloro-2-fluoro-3-(propylsulfonamido)phenyl)thiazol-5-yl)pyrimidin-2-yl)amino)-3-methylbutanoic acid], the IC50 in data set [1] was determined as 113 ± 10.7 nM; in data set [3], 124 ± 4.86 nM; in data set [4], 8840 nM.

Consider `CCCS(=O)(=O)Nc1cc(Cl)cc(-c2nc(C(C)(C)C)sc2-c2ccnc(NCC(C)C(F)C(=O)O)n2)c1F` (stereo not drawn) [8-41, 4-((4-(2-(tert-butyl)-4-(5-chloro-2-fluoro-3-(propylsulfonamido)phenyl)thiazol-5-yl)pyrimidin-2-yl)amino)-2-fluoro-3-methylbutanoic acid], for which the IC50 is 301 ± 39.9 nM in data set [1], 246 ± 8.73 nM in data set [3] and over 1000 nM in data set [4].

As to `CCCS(=O)(=O)Nc1cc(Cl)cc(-c2nc(C(C)(C)C)sc2-c2ccnc(NCC[C@@H](C)CC(=O)O)n2)c1F` [8-43, (R)-5-((4-(2-(tert-butyl)-4-(5-chloro-2-fluoro-3-(propylsulfonamido)phenyl)thiazol-5-yl)pyrimidin-2-yl)amino)-3-methylpentanoic acid], the IC50 in data set [1] was found to be 38.2 ± 3.29 nM; in data set [3], 51.1 ± 1.35 nM; in data set [4], 5130 ± 382 nM.

In data set [1], `COC(=O)N[C@@H](C)CNc1nccc(-c2cn(C(C)C)nc2-c2cc(Cl)cc(NS(C)(=O)=O)c2F)n1` [Encorafenib, reference compound] yielded a 50% inhibitory concentration (IC50) of 5.17 ± 0.412 nM. Moreover, in data set [2] (MDR1-MDCK), the “ER (efflux ratio)” value amounted to 21.8. For the same compound, in data set [2], the Papp A→B at 90 min, 10 µM is 1.32 ± 0.602 ×10⁻⁶ cm/s and the apparent permeability from basolateral to apical (Papp B→A) at 90 min, 10 µM was 14.7 ± 1.8 ×10⁻⁶ cm/s. Also, the Kp at 60 min in data set [5] was in the range of 0.0014 to 0.0069.

Turning to `CCCS(=O)(=O)Nc1ccc(F)c(C(=O)c2c[nH]c3ncc(Cl)cc23)c1F` [PLX4720, reference compound], in data set [5], the Kp at 60 min fell in the range of 0.0014 to 0.0069. Also, the “inhibition of ERK1/2 phosphorylation after 24 h” value in data set [6] was “diminished inhibition”.
